# Patent US20260265222A1, “1H-PYRROLE-2-AMIDE DERIVATIVE, PHARMACEUTICAL COMPOSITION AND METHOD FOR TREATING AND/OR PREVENTING YTHDC1-RELATED DISEASES” (priority 2023, published 2026)
# Biological target: T1, GST-YTHDC1 (345-509) protein (Homo sapiens, UniProt Q96MU7)
# T1 construct: GST-YTHDC1 (345-509) protein
# Assay: Fluorescence polarization-based in vitro enzyme-level test against YTHDC1
# Assay type: binding
# Conditions: 30 nM GST-YTHDC1 (345-509), FAM-labeled m6A-modified single-stranded oligonucleotide, 18° C., 4 hours; read-out: IC50 (Inhibitory Activity against YTHDC1)
row,Structure (SMILES),IC50 [nM]
1,CN(C)c1ccccc1-c1nccc2[nH]c(C(=O)Nc3ccc(-c4cncs4)cc3)cc12 [Compound 61],2510
2,CS(=O)(=O)c1ccccc1-c1nccc2[nH]c(C(=O)Nc3ccc(-c4cnco4)cc3)cc12 [Compound 62],280
3,O=C(Nc1ccc(-c2cncs2)cc1)c1cc2c(-c3ccccc3OC(F)F)nccc2[nH]1 [Compound 63],394
4,O=C(Nc1ccc(-c2cncs2)cc1)c1cc2c(-c3ccccc3-c3ccccc3)nccc2[nH]1 [Compound 64],1130
5,CSc1ccccc1-c1nccc2[nH]c(C(=O)Nc3ccc(-c4cncs4)cc3)cc12 [Compound 65],11200
6,O=C(Nc1ccc(-c2cncs2)cc1)c1cc2c(-c3ccccc3C3CC3)nccc2[nH]1 [Compound 66],> 50000
7,O=C(Nc1ccc(-c2cncs2)cc1)c1cc2c(-c3ccccc3OC3CC3)nccc2[nH]1 [Compound 67],> 50000
8,CCSc1ccccc1-c1nccc2[nH]c(C(=O)Nc3ccc(-c4cncs4)cc3)cc12 [Compound 68],1670
9,CS(=O)(=O)c1ccccc1-c1cccc2[nH]c(C(=O)Nc3ccc(-c4cncs4)cc3)cc12 [Compound 69],373
10,CS(=O)(=O)c1ccccc1-c1ccnc2[nH]c(C(=O)Nc3ccc(-c4cncs4)cc3)cc12 [Compound 70],2280
11,CN(C)c1ncc(-c2ccc(NC(=O)c3cc4c(-c5ccccc5S(C)(=O)=O)nccc4[nH]3)cc2)o1 [Compound 71],> 50000
12,CS(=O)(=O)c1ccccc1-c1nccc2[nH]c(C(=O)Nc3ccc(-c4ccccc4)cc3)cc12 [Compound 72],36500
13,CS(=O)(=O)c1ccccc1-c1nccc2[nH]c(C(=O)Nc3ccc(-c4ccncc4)cc3)cc12 [Compound 73],6270
14,CS(=O)(=O)c1ccccc1-c1nccc2[nH]c(C(=O)Nc3ccc(-c4cncnc4)cc3)cc12 [Compound 74],> 50000
15,CN(C)c1ncc(-c2ccc(NC(=O)c3cc(C(=O)c4ccccc4C(F)(F)F)c[nH]3)cc2)o1 [Compound 75],8.5
16,CCN(CCNc1ncc(-c2ccc(NC(=O)c3cc(C(=O)c4ccccc4C(F)(F)F)c[nH]3)cc2)o1)C(=O)OC(C)(C)C [Compound 76],5040
17,O=C(Nc1ccc(-c2cnc(N3CCOCC3)o2)cc1)c1cc(C(=O)c2ccccc2C(F)(F)F)c[nH]1 [Compound 77],67
18,O=C(Nc1ccc(-c2cnc(N3CCOCC3)o2)cc1)c1cc(C(=O)c2ccccc2Br)c[nH]1 [Compound 78],123
19,CN1CCN(c2ncc(-c3ccc(NC(=O)c4cc(C(=O)c5ccccc5C(F)(F)F)c[nH]4)cc3)o2)CC1 [Compound 79],88
20,CN1CCN(c2ncc(-c3ccc(NC(=O)c4cc(C(=O)c5ccccc5Br)c[nH]4)cc3)o2)CC1 [Compound 80],344
21,O=C(Nc1ccc(-c2cnc(N3CCNCC3)o2)cc1)c1cc(C(=O)c2ccccc2C(F)(F)F)c[nH]1 [Compound 81],61
22,CC(C)(C)OC(=O)N1CCN2c3ccc(NC(=O)c4cc(C(=O)c5ccccc5C(F)(F)F)c[nH]4)cc3OCC2C1 (stereo not shown) [Compound 82],125
23,O=C(Nc1ccc2c(c1)OCc1ccccc1-2)c1cc(C(=O)c2ccccc2C(F)(F)F)c[nH]1 [Compound 83],98.7

row,Structure (SMILES),IC50 [nM]
1,CC(C)(C)OC(=O)N1CCN(c2ncc(-c3ccc(NC(=O)c4cc(C(=O)C5C=CC=CC5Br)c[nH]4)cc3)o2)CC1 (stereo not shown) [Compound 84],> 50000
2,O=C(Nc1ccc(-c2cnc(N3CCN(C4COC4)CC3)o2)cc1)c1cc(C(=O)c2ccccc2Br)c[nH]1 [Compound 85],234
3,O=C(Nc1ccc(-c2cnc(N3CCN(CCO)CC3)o2)cc1)c1cc(C(=O)c2ccccc2Br)c[nH]1 [Compound 86],847
4,O=C(Nc1ccc(-c2cnc(N3CCN(S(=O)(=O)C4CC4)CC3)o2)cc1)c1cc(C(=O)C2C=CC=CC2Br)c[nH]1 (stereo not shown) [Compound 87],2320
5,O=C(Nc1ccc(-c2cnc(N3CCN(C4COC4)CC3)o2)cc1)c1cc(C(=O)c2ccccc2C(F)(F)F)c[nH]1 [Compound 88],71.2
6,O=C(Nc1ccc(-c2cnc(N3CCN(S(=O)(=O)Cc4ccccc4)CC3)o2)cc1)c1cc(C(=O)C2C=CC=CC2C(F)(F)F)c[nH]1 (stereo not shown) [Compound 89],> 50000
7,COc1cc(NC(=O)c2cc(C(=O)c3ccccc3C(F)(F)F)c[nH]2)ccc1-c1cnco1 [Compound 90],3.7
8,O=C(Nc1ccc2c(c1)OCC1CNCCN21)c1cc(C(=O)c2ccccc2C(F)(F)F)c[nH]1 (stereo not shown) [Compound 91],937
9,CN1CCN2c3ccc(NC(=O)c4cc(C(=O)c5ccccc5C(F)(F)F)c[nH]4)cc3OCC2C1 (stereo not shown) [Compound 92],409
10,O=C(Nc1ccc(-c2cnco2)c(F)c1)c1cc(C(=O)c2ccccc2C(F)(F)F)c[nH]1 [Compound 93],8.92
11,O=C(Nc1ccc(-c2ocnc2CO)cc1)c1cc(C(=O)c2ccccc2C(F)(F)F)c[nH]1 [Compound 94],113
12,Cc1cc(-c2cnco2)ccc1NC(=O)c1cc(C(=O)c2ccccc2C(F)(F)F)c[nH]1 [Compound 95],39
13,COCOc1cc(NC(=O)c2cc(C(=O)c3ccccc3C(F)(F)F)c[nH]2)ccc1-c1cnco1 [Compound 96],14.5
14,CN(C)c1cc(NC(=O)c2cc(C(=O)c3ccccc3C(F)(F)F)c[nH]2)ccc1-c1cnco1 [Compound 97],50.9
15,CN(C)CCOc1cc(NC(=O)c2cc(C(=O)c3ccccc3C(F)(F)F)c[nH]2)ccc1-c1cnco1 [Compound 98],15
16,CN(CCO)c1cc(NC(=O)c2cc(C(=O)c3ccccc3C(F)(F)F)c[nH]2)ccc1-c1cnco1 [Compound 99],258
17,CS(=O)(=O)c1ccc(NC(=O)c2cc(C(=O)c3ccccc3C(F)(F)F)c[nH]2)cc1 [Compound 100],162
18,CN(C)CCOc1cc(NC(=O)c2cc(C(=O)c3ccccc3C(F)(F)F)c[nH]2)ccc1-c1cnco1 [Compound 101],43
19,O=C(Nc1ccc(-c2cncnc2)cc1)c1cc(C(=O)c2ccccc2C(F)(F)F)c[nH]1 [Compound 102],86
20,CCN(C)c1ncc(-c2ccc(NC(=O)c3cc(C(=O)c4ccccc4C(F)(F)F)c[nH]3)cc2)o1 [Compound 103],14
21,O=C(Nc1ccc(-c2cnc(N3CCC3)o2)cc1)c1cc(C(=O)c2ccccc2C(F)(F)F)c[nH]1 [Compound 104],9
22,O=C(Nc1ccc(-c2cnco2)cc1)c1cc(C(=O)c2ccccc2C(F)(F)F)c[nH]1 [Compound 105],9.7
23,O=C(Nc1ccc(-c2ccc(N3CCCC3)cc2)cc1)c1cc(C(=O)c2ccccc2C(F)(F)F)c[nH]1 [Compound 106],1770

row,Structure (SMILES),IC50 [nM]
1,CN1C(=O)Cc2cc(-c3ccc(NC(=O)C4=CC(C(=O)c5ccccc5C(F)(F)F)CN4)cc3)ccc21 (stereo not shown) [Compound 107],22
2,COC(=O)c1cccc(-c2ccc(NC(=O)c3cc(C(=O)c4ccccc4C(F)(F)F)c[nH]3)cc2)c1 [Compound 108],183
3,CN1CCN(c2ccc(-c3ccc(NC(=O)c4cc(C(=O)c5ccccc5C(F)(F)F)c[nH]4)cc3)cc2)CC1 [Compound 109],44
4,CN(C)c1ccccc1-c1ccc(NC(=O)c2cc(C(=O)c3ccccc3C(F)(F)F)c[nH]2)cc1 [Compound 110],413
5,O=C(Nc1ccccc1)c1ccc(NC(=O)c2cc(C(=O)c3ccccc3C(F)(F)F)c[nH]2)cc1 [Compound 111],367
6,O=C(Nc1ccc(C(F)(F)F)cc1[N+](=O)[O-])c1cc(C(=O)c2ccccc2C(F)(F)F)c[nH]1 [Compound 112],≥ 50000
7,O=C(Nc1ccc(C(F)(F)F)c(F)c1)c1cc(C(=O)c2ccccc2C(F)(F)F)c[nH]1 [Compound 113],54
8,COc1cc(NC(=O)c2cc(C(=O)c3ccccc3C(F)(F)F)c[nH]2)ccc1C(F)(F)F [Compound 114],16
9,O=C(Nc1cccc(C(F)(F)F)c1)c1cc(C(=O)c2ccccc2C(F)(F)F)c[nH]1 [Compound 115],2640
10,CC(C)(C)OC(=O)Nc1ccc(-c2ccc(NC(=O)c3cc(C(=O)c4ccccc4C(F)(F)F)c[nH]3)cc2)cc1 [Compound 116],≥ 50000
11,COC(=O)c1cc(C(F)(F)F)ccc1NC(=O)c1cc(C(=O)c2ccccc2C(F)(F)F)c[nH]1 [Compound 117],≥ 50000
12,O=C(Nc1ccc(-c2cnco2)cc1)c1cc(C(=O)c2ccccc2N2CCSCC2)c[nH]1 [Compound 118],12
13,O=C(Nc1ccc(Cc2ccccc2)cc1)c1cc(C(=O)c2ccccc2C(F)(F)F)c[nH]1 [Compound 119],14200
14,O=C(Nc1ccc(C(=O)N2CCC3(CC2)OCc2ccccc23)cc1)c1cc(C(=O)c2ccccc2C(F)(F)F)c[nH]1 [Compound 120],≥ 50000
15,O=C(Nc1ccc(-c2cnco2)cc1)c1cc(C(=O)c2ccccc2N2CCCC2=O)c[nH]1 [Compound 121],25
16,O=C(Nc1ccc(S(=O)(=O)Nc2ccccc2)cc1)c1cc(C(=O)c2ccccc2C(F)(F)F)c[nH]1 [Compound 123],118
17,CC(C)(C)OC(=O)N1CCc2cc(-c3ccc(NC(=O)c4cc(C(=O)c5ccccc5C(F)(F)F)c[nH]4)cc3)ccc21 [Compound 124],≥ 50000
18,CC1CCN(c2ccccc2C(=O)c2c[nH]c(C(=O)Nc3ccc(-c4cnco4)cc3)c2)CC1 [Compound 125],13
19,O=C1CC2C=C(c3ccc(NC(=O)c4cc(C(=O)c5ccccc5C(F)(F)F)c[nH]4)cc3)C=CC2N1 (stereo not shown) [Compound 126],13
20,CCN(C)c1ccccc1C(=O)c1c[nH]c(C(=O)Nc2ccc(-c3cnco3)cc2)c1 [Compound 127],13
21,O=C(Nc1ccc(-c2cnco2)cc1)c1cc(C(=O)c2ccccc2N2CCCC2)c[nH]1 [Compound 128],23
22,CC(C)(C)OC(=O)n1cc(-c2ccc(NC(=O)c3cc(C(=O)c4ccccc4C(F)(F)F)c[nH]3)cc2)c2ccccc21 [Compound 129],31200
23,COc1ccc(CNc2ccccc2C(=O)c2c[nH]c(C(=O)Nc3ccc(-c4cnco4)cc3)c2)cc1 [Compound 130],≥ 50000

# Same assay, conditions: read-out: IC50 (Inhibitory Activity against YTHDC1)
row,Structure (SMILES),IC50 [nM]
1,C[Si]1(C)CCN(c2ccccc2C(=O)c2c[nH]c(C(=O)Nc3ccc(-c4cnco4)cc3)c2)CC1 [Compound 122],83
